Legend:
[1] = system: high fat+fructose (HF/HS) diet hamsters; test: FPLC cholesterol subpopulation traces of pooled hamster plasma; assay type: in vivo, male Golden Syrian hamsters; details: ARI-001 2240 mg/kg 18 days, vs vehicle
Procedure: Fast protein liquid chromatography (FPLC) was used to separate the different cholesterol subpopulations from samples of hamster plasma. Briefly, plasma from each animal within a given cohort was pooled together and applied to an AKTA liquid handling system with a Superose 6 10/300 GL column (product #14-5172-01, GE Life Sciences). 250 μL of sample was applied to the injection system, diluted with 5 mL of buffer (100 mM Na2HPO4, 100 mM NaCl, pH 7.5), loaded onto the column, and eluted with 23.5 mL of buffer at a flow rate of 1.0 mL/min, into fractions of size 0.24 mL. Each fraction was individually measured for cholesterol concentration using the total cholesterol kit from Wako as described above with the following modification: sample volume was increased to 30 μL and the reagent volume was decreased to 60 μL.
FPLC traces produce continuous curves with three distinct peaks, representing each of the cholesterol subpopultions: VLDL, LDL, and HDL. Because the column used in this experiment is a size-exclusion column, the largest particles appear first, while the smallest appear last. […]
The measured HDL values were borderline significant (p=0.06) between the 2240 mg/kg ARI-001 group and vehicle. There was a considerable increase in significance when considering the calculated HDL/TC values. […]

[2] = ARI-001 plasma, liver and adipose concentrations correlated with lipid parameters; assay type: in vivo, hamster; details: 18-day study; p<0.01 for each pair
Procedure: Plasma from the 19 hamsters dosed with ARI-001 in the above described 18-day study was analyzed for concentrations of ARI-001. Concentrations were determined for these samples, which were collected 24 hours after the final dose was administered. Briefly, plasma drug concentrations for the non-GLP pharmacokinetic experiments were determined by LC-MS using an Applied Biosystems 4000Qtrap spectrometer with electrospray ionization. Samples were prepared for analysis by precipitation of plasma proteins with cold methanol. HPLC of the samples was done with an Agilent Eclipse C18 column and a methanol/water gradient containing 0.1% formic acid and 5 mM ammonium acetate. ARI-001 was detected using multiple reaction monitoring (MRM) in the positive ion mode. For quantitation, a standard curve was measured by addition of known amounts of ARI-001 to plasma from untreated animals and preparing in a manner identical to the samples from treated animals. All plasma samples were spiked with 10 ng/mL of isotope-enriched ARI-001 which served as an internal standard for the LC-MS measurements. […] Pearson r values were determined using all data points, as was the two-tailed P-value for the data set. […]
FIG. 8 graphs the correlation between concentrations of ARI-001 in plasma versus liver (left), and in plasma versus adipose (right). […] Pearson r was determined using all data points illustrated. […]

[3] = Single oral dose pharmacokinetic comparison niacin, ARI-001, 2230C in wild type mice; assay type: in vivo, C57BL/6 mice; details: single bolus oral gavage, mouse plasma
Text: Compound 2230C has the structure

[4] = Pharmacokinetics of multiple administrations to fasted monkeys; assay type: in vivo, Macaque monkeys; details: 288 mg/kg oral gavage once per day, seven days
Procedure: ARI-001 was administered to monkeys via oral gavage once per day for a total of seven days. Blood samples were collected after the first and after the last administrations to measure plasma concentrations of ARI-001.

[5] = biological target: T1, GPR109A (Homo sapiens, UniProt Q8TDS4); test: PathHunter eXpress β-arrestin recruitment assay; assay type: cell-based; details: concentrations up to 10 mM, 90 minutes
T1 construct: β-galactosidase enzyme fragment (ProLink-type complementation tag); expressed in transfected cells
T1 sequence (Q8TDS4 whole entry, the tested form may be a part): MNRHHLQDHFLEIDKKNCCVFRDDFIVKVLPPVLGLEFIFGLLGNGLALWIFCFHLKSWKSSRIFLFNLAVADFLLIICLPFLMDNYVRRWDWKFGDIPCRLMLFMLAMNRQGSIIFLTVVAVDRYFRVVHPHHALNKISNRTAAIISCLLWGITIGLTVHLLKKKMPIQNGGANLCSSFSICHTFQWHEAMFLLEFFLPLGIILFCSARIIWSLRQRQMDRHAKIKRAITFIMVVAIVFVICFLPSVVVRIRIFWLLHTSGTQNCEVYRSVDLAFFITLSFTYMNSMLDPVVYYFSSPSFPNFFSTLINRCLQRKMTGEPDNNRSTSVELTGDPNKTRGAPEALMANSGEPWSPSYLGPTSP
Text: Walters R W et al. (2009) J Clin Invest 119:1312-21. […] G protein-coupled receptor (GPCR) activity was detected by measuring the interaction of β-arrestin with the activated GPCR using […] enzyme fragment complementation.

correlations of plasma versus liver and plasma versus adipose concentrations [2]: highly statistically significant | AUC ([3]; C57BL/6): 1100 µM·h | Cmax ([3]; C57BL/6): 309 µM | Tmax ([3]; C57BL/6): 22.8 min | half-life ([3]; C57BL/6, read-out: half-life (t1/2) (converted)): 85.8 min | AUC (% Niacin) [3]: 9.4 % Niacin | Cmax (% Niacin) [3]: 7.5 % Niacin | Cmax/AUC0-24 [3]: 0.28 h⁻¹ | Cmax day 1 versus day 7 [4]: higher on day 7 than on day 1 | concentrations 24 hours after first or last dose [4]: essentially identical | plasma concentrations day 1 versus day 7 [4]: very little difference | recruitment of β-arrestin to the membrane of cells expressing GPR109A [5]: failed to recruit β-arrestin
Structure (SMILES): O=C(O)c1ccc(CCN2CCOCC2)nc1 [ARI-001]
FPLC HDL curve [1]: notably larger | FPLC VLDL and LDL peaks [1]: considerably decreased compared to vehicle
